From PMC9136971 (ACS Central Science, 2022)
Where a SMILES comes first, the peptide text is derived from it. The star is where a group is joined. X1 = O=C(O)[C@H]1CSC(c2nc3ccc(OCc4ccc(N*)cc4)cc3s2)=N1

Key:
[1] = Baseline uptake and biodistribution study in healthy mice; format: in vivo, mouse; conditions: for baseline bioluminescence distribution: healthy Fluc+ BALB/c mice, D-luciferin 3 mg i.p., GBLI2 200 μg i.v. retro-orbital
[2] = tested on: untransduced activated CD8+ T cells; experiment: Cellular uptake assay; format: cell-based, mouse; conditions: 5 μM, pre-incubation 30 min, 2.5 h at 4 or 37 °C, flow cytometry
A20Luc+ cells = experiment: Cell viability assay; format: cell-based, mouse; conditions: 5 μM – 100 μM, 37 °C, 3.5 h, absorbance at 490 nm
[3] = tested on: activated untransduced CD8+ T cells; experiment: Cell viability assay; format: cell-based, mouse; conditions: 5 μM – 100 μM, 37 °C, 3.5 h, absorbance at 490 nm
CAR T cells = experiment: Cell viability assay; format: cell-based, mouse; conditions: 5 μM – 100 μM, 37 °C, 3.5 h, absorbance at 490 nm
[4] = DLS size distribution and zeta potential of nanoaggregates; format: physicochemical; conditions: without gzmB cleavage

| baseline bioluminescence distribution [1] | Compound | G-SNAT-Cy5 uptake at 4 °C versus 37 °C (MFI-Cy5 of viable cells) [2] | cell viability (MTS) (A20Luc+ cells) | cell viability (MTS) [3] | cell viability (MTS) (CAR T cells) | organ distribution of fluorescence after dissection ([1]; 5 nmol retro orbital, 1 h post i.v. injection, organ imaging, n = 3) | DLS signal of G-SNAT uncleaved by gzmB [4] |
| --- | --- | --- | --- | --- | --- | --- | --- |
| mainly restricted to the abdomen | O=C([O-])[C@H]1CSC(c2nc3ccc(O)cc3s2)=N1.[K+] [D-luciferin, D-luciferin, potassium salt] | – | – | – | – | – | – |
| – | CCSSC[C@H](NC(=O)[C@H](CC(=O)O)NC(=O)[C@H](Cc1ccccc1)NC(=O)[C@H](CCC(=O)O)NC(=O)[C@@H](NC(C)=O)[C@@H](C)CC)C(=O)NCC(=O)N[C@@H](Cc1cn(CCCNC(=O)CCCCC[N+]2=C(/C=C/C=C/C=C3/N(C)c4ccc(S(=O)(=O)[O-])cc4C3(C)C)C(C)(C)c3cc(S(=O)(=O)O)ccc32)nn1)C(=O)NCc1ccc(C(=O)NCCCOc2cnc(C#N)nc2)cc1 [G-SNAT-Cy5] | significantly attenuated | well tolerated | well tolerated | well tolerated | mainly associated with the gastrointestinal tract | – |
| highly concentrated in the spleen | CC[C@H](C)[C@H](NC(C)=O)C(=O)N[C@@H](CCC(=O)O)C(=O)N[C@@H](Cc1ccccc1)C(=O)N[C@@H](CC(=O)O)C(=O)Nc1ccc(COc2ccc3nc(C4=N[C@@H](C(=O)O)CS4)sc3c2)cc1 [GBLI2] (Ac-IEFD-X1) | – | – | – | – | – | – |
| – | (4S,10R,13S,16S,19S)-19-((2S,3S)-2-acetamido-3-methylpentanamido)-16-benzyl-13(carboxymethyl)-1-(4-((3-((2-cyanopyrimidin-5-yl)oxy)propyl)carbamoyl)phenyl)-10-((ethylsulfinothioyl)methyl)-3,6,9,12,15,18-hexaoxo-4-(prop-2-yn-1-yl)-2,5,8,11,14,17-hexaazadocosan-22-oic acid [G-SNAT] | – | well tolerated | well tolerated | well tolerated | – | No DLS signal could be detected |
